From patent US9181273B2, “Morpholine-spirocyclic piperidine amides as modulators of ion channels” (Vertex Pharmaceuticals Incorporated, priority 2011, dated 2015)

The compounds below were run against human NaV subtype, like NaV 1.7 (Homo sapiens, UniProt Q15858) (assay: E-VIPR optical membrane potential assay with electrical stimulation). Conditions: active against one or more sodium channels; assay and NaV subtype not specified for Table 3; read-out: IC50 Binned Activity Data.
Format: cell-based
Text: Sodium channels are voltage-dependent proteins that can be activated by inducing membrane voltage changes by applying electric fields. […] The instrument comprises a microtiter plate handler, an optical system for exciting the coumarin dye while simultaneously recording the coumarin and oxonol emissions, a waveform generator, a current- or voltage-controlled amplifier, and a device for inserting electrodes in well. Under integrated computer control, this instrument passes user-programmed electrical stimulus protocols to cells within the wells of the microtiter plate.
24 hours before the assay on E-VIPR, HEK cells expressing human NaV subtype, like NaV 1.7, are seeded in 384-well poly-lysine coated plates at 15,000-20,000 cells per well. Other subtypes are performed in an analogous mode in a cell line expressing the NaV of interest. […] Cells are grown in vented cap flasks, in 90% humidity and 10% CO2, to 100% confluence. They are usually split by trypsinization 1:10 or 1:20, depending on scheduling needs, and grown for 2-3 days before the next split.
To make the solution Add volume of 10% Pluronic F127 stock equal to volumes of CC2-DMPE+DiSBAC6(3). The order of preparation is first mix Pluronic and CC2-DMPE, then add DiSBAC6(3) while vortexing, then add Bath1+β-Cyclodextrin.
1) Pre-spot compounds (in neat DMSO) into compound plates. […] Final compound plate volume will be 80 μL (80-fold intermediate dilution from 1 μL DMSO spot; 160-fold final dilution after transfer to cell plate).
2) Prepare Hexyl Dye Solution.
3) Prepare cell plates. On the day of the assay, medium is aspirated and cells are washed three times with 100 μL of Bath1 Solution, maintaining 25 μL residual volume in each well.
4) Dispense 25 μL per well of Hexyl Dye Solution into cell plates. Incubate for 20-35 minutes at room temp or ambient conditions.
5) Dispense 80 μL per well of Bath1 into compound plates. Acid Yellow-17 (1 mM) is added and Potassium Chloride can be altered from 4.5 to 20 mM depending on the NaV subtype and assay sensitivity.
6) Wash cell plates three times with 100 μL per well of Bath1, leaving 25 μL of residual volume. Then transfer 25 uL per well from Compound Plates to Cell Plates. Incubate for 20-35 minutes at room temp/ambient condition
7) Read Plate on E-VIPR. Use the current-controlled amplifier to deliver stimulation wave pulses for typically 9 seconds and a scan rate of 400 Hz. A pre-stimulus recording is performed for 0.5 seconds to obtain the un-stimulated intensities baseline. The stimulatory waveform is applied for 9 seconds followed by 0.5 seconds of post-stimulation recording to examine the relaxation to the resting state. The stimulatory waveform of the electrical stimulation is specific for each cell type and can vary the magnitude, duration and frequency of the applied current to provide an optimal assay signal.
Data are analyzed and reported as normalized ratios of background-subtracted emission intensities measured in the 460 nm and 580 nm channels. Background intensities are then subtracted from each assay channel. Background intensities are obtained by measuring the emission intensities during the same time periods from identically treated assay wells in which there are no cells. The response as a function of time is then reported as the ratios obtained using the following formula: […]
The data is further reduced by calculating the initial (Ri) and final (Rf) ratios. These are the average ratio values during part or all of the pre-stimulation period, and during sample points during the stimulation period. The response to the stimulus R=Rf/Ri is then calculated and reported as a function of time.
Control responses are obtained by performing assays in the presence of a compound with the desired properties (positive control), such as tetracaine, and in the absence of pharmacological agents (negative control). Responses to the negative (N) and positive (P) controls are calculated as above. The compound antagonist activity A is defined as: […]

Chain of human NaV subtype, like NaV 1.7 (Q15858 whole entry): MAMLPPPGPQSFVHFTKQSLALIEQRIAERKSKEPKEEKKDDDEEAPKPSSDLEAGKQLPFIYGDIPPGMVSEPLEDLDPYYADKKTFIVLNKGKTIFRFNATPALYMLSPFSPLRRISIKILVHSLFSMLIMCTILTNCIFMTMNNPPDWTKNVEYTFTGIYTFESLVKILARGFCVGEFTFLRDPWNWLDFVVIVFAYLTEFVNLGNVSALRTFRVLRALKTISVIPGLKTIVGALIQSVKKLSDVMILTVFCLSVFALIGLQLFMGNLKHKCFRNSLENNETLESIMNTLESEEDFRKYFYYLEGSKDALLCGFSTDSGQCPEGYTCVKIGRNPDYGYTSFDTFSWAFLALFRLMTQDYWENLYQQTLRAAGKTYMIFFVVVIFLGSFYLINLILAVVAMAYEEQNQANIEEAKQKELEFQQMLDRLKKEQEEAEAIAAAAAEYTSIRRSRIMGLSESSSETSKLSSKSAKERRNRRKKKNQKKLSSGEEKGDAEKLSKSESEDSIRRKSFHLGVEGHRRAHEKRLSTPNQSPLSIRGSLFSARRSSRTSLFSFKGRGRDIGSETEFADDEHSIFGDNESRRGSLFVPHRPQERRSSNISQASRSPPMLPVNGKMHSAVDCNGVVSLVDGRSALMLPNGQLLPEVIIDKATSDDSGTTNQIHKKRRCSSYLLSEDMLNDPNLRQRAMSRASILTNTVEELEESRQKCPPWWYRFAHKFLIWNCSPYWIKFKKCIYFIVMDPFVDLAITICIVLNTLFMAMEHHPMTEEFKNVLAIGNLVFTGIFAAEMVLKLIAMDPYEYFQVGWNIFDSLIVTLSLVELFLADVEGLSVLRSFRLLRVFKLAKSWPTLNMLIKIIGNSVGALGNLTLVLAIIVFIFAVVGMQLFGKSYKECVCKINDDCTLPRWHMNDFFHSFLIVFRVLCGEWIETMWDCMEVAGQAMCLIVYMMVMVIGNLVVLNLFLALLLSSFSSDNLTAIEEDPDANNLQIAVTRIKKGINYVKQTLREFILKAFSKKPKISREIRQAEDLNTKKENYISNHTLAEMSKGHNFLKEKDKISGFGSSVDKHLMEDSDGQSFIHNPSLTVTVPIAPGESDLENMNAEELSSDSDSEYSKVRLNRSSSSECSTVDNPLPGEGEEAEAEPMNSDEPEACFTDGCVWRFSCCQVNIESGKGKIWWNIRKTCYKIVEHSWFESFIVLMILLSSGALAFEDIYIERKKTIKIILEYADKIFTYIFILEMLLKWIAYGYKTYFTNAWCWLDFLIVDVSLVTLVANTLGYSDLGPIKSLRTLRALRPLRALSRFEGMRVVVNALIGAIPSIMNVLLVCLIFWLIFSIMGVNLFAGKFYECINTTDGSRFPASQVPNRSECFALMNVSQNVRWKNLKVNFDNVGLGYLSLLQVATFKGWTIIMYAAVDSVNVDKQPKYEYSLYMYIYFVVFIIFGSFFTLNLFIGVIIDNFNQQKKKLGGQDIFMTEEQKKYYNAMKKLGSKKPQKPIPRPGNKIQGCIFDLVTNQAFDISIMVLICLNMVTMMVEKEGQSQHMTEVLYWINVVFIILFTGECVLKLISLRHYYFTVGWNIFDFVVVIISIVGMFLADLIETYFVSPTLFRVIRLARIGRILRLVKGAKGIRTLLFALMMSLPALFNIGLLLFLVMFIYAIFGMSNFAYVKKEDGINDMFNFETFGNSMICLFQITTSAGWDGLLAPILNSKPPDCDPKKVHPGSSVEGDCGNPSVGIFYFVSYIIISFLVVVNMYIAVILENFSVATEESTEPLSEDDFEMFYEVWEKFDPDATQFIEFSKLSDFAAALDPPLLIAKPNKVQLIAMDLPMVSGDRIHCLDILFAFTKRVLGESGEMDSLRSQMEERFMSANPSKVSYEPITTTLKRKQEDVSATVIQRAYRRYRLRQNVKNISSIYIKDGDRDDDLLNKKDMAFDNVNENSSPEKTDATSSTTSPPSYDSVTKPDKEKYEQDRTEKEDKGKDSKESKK

Structure (SMILES) | IC50 [nM]
CC(C)Oc1ccc(C(=O)N2CCC3(CC2)CN(CC(F)(F)F)CC(c2ccccc2)O3)cc1 (stereo not drawn) [Compound 119] | < 2000
COCC1CN(c2ncccn2)CC2(CCN(C(=O)c3ccc(OC(C)C)c(C)c3)CC2)O1 (stereo not drawn) [Compound 120] | < 2000
COCC1CN(C2CCN(C(C)=O)CC2)CC2(CCN(C(=O)c3ccc(OC(C)C)c(C)c3)CC2)O1 (stereo not drawn) [Compound 121] | > 5000
Cc1cc(C(=O)N2CCC3(CC2)CN(CC(F)F)CC(c2ccc(Cl)cc2)O3)ccc1OC(C)C (stereo not drawn) [Compound 122] | > 5000
Cc1cc(C(=O)N2CCC3(CC2)CN(CC(F)(F)F)[C@H](C)[C@@H](c2ccccc2)O3)ccc1OC(C)C [Compound 123] | 2000 to 5000
COCC1CN(c2ccc(C(F)(F)F)cc2)CC2(CCN(C(=O)c3ccc(OC(C)C)c(C)c3)CC2)O1 (stereo not drawn) [Compound 124] | < 2000
COCCOc1ccc(C(=O)N2CCC3(CC2)CN(c2ncccn2)CC(COC)O3)cc1OC (stereo not drawn) [Compound 125] | > 5000
COCC1CN(c2cc(OC)ccn2)CC2(CCN(C(=O)c3ccc(OC(C)C)c(C)c3)CC2)O1 (stereo not drawn) [Compound 126] | < 2000
Cc1cc(C(=O)N2CCC3(CC2)CN(CC(F)(F)F)CC(C(C)(C)O)O3)ccc1OC(C)C (stereo not drawn) [Compound 127] | 2000 to 5000
COc1cc(C(=O)N2CCC3(CC2)CN(CC(F)(F)F)CC(c2ccccc2)O3)ccc1OC(C)(C)C (stereo not drawn) [Compound 128] | < 2000
CC#CCN1CC(CC)OC2(CCN(C(=O)c3ccc(C(C)(C)C)c(OC)c3)CC2)C1 (stereo not drawn) [Compound 129] | < 2000
CCC1CN(c2ncccn2)CC2(CCN(C(=O)c3ccc(C4=CCCC4)c(F)c3)CC2)O1 (stereo not drawn) [Compound 130] | > 5000
COCC1CN(C2CCSCC2)CC2(CCN(C(=O)c3ccc(OC(C)C)c(C)c3)CC2)O1 (stereo not drawn) [Compound 131] | < 2000
COCC1CN(Cc2cc(C)on2)CC2(CCN(C(=O)c3ccc(OC(C)C)c(C)c3)CC2)O1 (stereo not drawn) [Compound 132] | 2000 to 5000
CC(C)(O)Cc1ccc(C(=O)N2CCC3(CC2)CN(CC(F)(F)F)CC(c2ccccc2)O3)cc1 (stereo not drawn) [Compound 133] | < 2000
COCC1CN(CC2CCOCC2)CC2(CCN(C(=O)c3ccc(OC(C)C)c(C)c3)CC2)O1 (stereo not drawn) [Compound 134] | > 5000
CC(C)Oc1ccc(C(=O)N2CCC3(CC2)CN(CC(F)(F)F)CC(c2ccccc2)O3)c(F)c1 (stereo not drawn) [Compound 135] | < 2000
COCC1CN(c2ncccn2)CC2(CCN(C(=O)c3ccc(OC(C)C)cc3)CC2)O1 (stereo not drawn) [Compound 136] | 2000 to 5000
CC(C)Oc1ccc(C(=O)N2CCC3(CC2)CN(CC(F)F)CC(c2ncc(C(C)(C)C)o2)O3)cc1F (stereo not drawn) [Compound 137] | < 2000

Structure (SMILES) | IC50 [nM]
Cc1cc(C(=O)N2CCC3(CC2)CN(CC(F)(F)F)CC(c2ccccc2)O3)ccc1OCC(C)(C)O (stereo not drawn) [Compound 138] | < 2000
CC#CCN1CC(CF)OC2(CCN(C(=O)c3ccc(OC(C)C)c(C)c3)CC2)C1 (stereo not drawn) [Compound 139] | > 5000
COCC1CN(c2ccccn2)CC2(CCN(C(=O)c3ccc(OC(C)C)c(C)c3)CC2)O1 (stereo not drawn) [Compound 140] | < 2000
CC#CCN1CC(CC)OC2(CCN(C(=O)c3ccc(OC)c(C)c3)CC2)C1 (stereo not drawn) [Compound 141] | > 5000
CCC1CN(Cc2ccccc2)CC2(CCN(C(=O)c3ccc(OC(C)C)c(C)c3)CC2)O1 (stereo not drawn) [Compound 142] | > 5000
COCCOc1ccc(C(=O)N2CCC3(CC2)CN(CC(F)(F)F)CC(c2ccccc2)O3)cc1OC (stereo not drawn) [Compound 143] | < 2000
COc1cccc(C(=O)N2CCC3(CC2)CN(CC(F)F)CC(c2ccccc2)O3)n1 (stereo not drawn) [Compound 144] | 2000 to 5000
CCOc1ccc(C(=O)N2CCC3(CC2)CN(CC)CC(c2ccccc2)O3)cc1CO (stereo not drawn) [Compound 145] | > 5000
Cc1cc(C(=O)N2CCC3(CC2)CN(CC(F)(F)F)CC(CCO)O3)ccc1OC(C)C (stereo not drawn) [Compound 146] | 2000 to 5000
COCC1CN(CCC(C)C)CC2(CCN(C(=O)c3ccc(OC(C)C)c(C)c3)CC2)O1 (stereo not drawn) [Compound 147] | < 2000
Cc1noc(C2CN(Cc3ccccc3)CC3(CCN(C(=O)c4ccc(OC(C)C)c(C)c4)CC3)O2)n1 (stereo not drawn) [Compound 148] | 2000 to 5000
Cc1noc(C2CN(CC(F)(F)F)CC3(CCN(C(=O)c4ccc(OC(C)C)c(C)c4)CC3)O2)n1 (stereo not drawn) [Compound 149] | 2000 to 5000
Cc1cc(C(=O)N2CCC3(CC2)CN(CC(F)F)CC(c2[nH]ncc2C)O3)ccc1OC(C)C (stereo not drawn) [Compound 150] | < 2000
O=C(c1ccc(C2(O)COC2)cc1)N1CCC2(CC1)CN(CC(F)(F)F)CC(c1ccccc1)O2 (stereo not drawn) [Compound 151] | > 5000
COc1cc(C(=O)N2CCC3(CC2)CN(CC(F)(F)F)CC(c2ncc(C)s2)O3)ccc1OC(C)C (stereo not drawn) [Compound 152] | < 2000
Cc1cc(C(=O)N2CCC3(CC2)CN(CC(F)F)CC(c2ccccc2)O3)ccc1OC(C)C (stereo not drawn) [Compound 153] | < 2000
CC#CCN1CC(F)(F)OC2(CCN(C(=O)c3ccc(OC(C)C)c(C)c3)CC2)C1 [Compound 154] | > 5000
O=C(c1cccc(Cl)c1)N1CCC2(CC1)CN(CC(F)(F)F)CC(c1ccccc1)O2 (stereo not drawn) [Compound 155] | > 5000
CC(C)Oc1ccc(C(=O)N2CCC3(CC2)CN(CC(F)F)CC(c2ccc(F)cc2)O3)cc1Cl (stereo not drawn) [Compound 156] | < 2000

Structure (SMILES) | IC50 [nM]
Cc1nc(C(=O)N2CCC3(CC2)CN(CC(F)F)CC(c2ccccc2)O3)ccc1C#N (stereo not drawn) [Compound 157] | > 5000
CCN1CC(c2ccccc2)OC2(CCN(C(=O)c3ccc(C(C)(C)O)cc3)CC2)C1 (stereo not drawn) [Compound 158] | > 5000
CC(C)Oc1ccc(C(=O)N2CCC3(CC2)CN(CC(F)F)CC(c2ncc(C(C)C)o2)O3)cc1F (stereo not drawn) [Compound 159] | > 5000
COCC1CN(C(C)(C)C)CC2(CCN(C(=O)c3ccc(OC(C)C)c(C)c3)CC2)O1 (stereo not drawn) [Compound 160] | 2000 to 5000
COCC1CN(c2ncccn2)CC2(CCN(C(=O)c3ccc(C(C)(C)O)cc3)CC2)O1 (stereo not drawn) [Compound 161] | > 5000
COc1cc(C(=O)N2CCC3(CC2)CN(CC(F)F)CC(c2cccc(C)n2)O3)cc(F)c1OC(C)C (stereo not drawn) [Compound 162] | > 5000
Cc1cc(C(=O)N2CCC3(CC2)CNCC(c2ccccc2)O3)ccc1OC(C)C (stereo not drawn) [Compound 163] | > 5000
COCC1CN(c2ncccn2)CC2(CCN(C(=O)c3ccccc3OC(F)F)CC2)O1 (stereo not drawn) [Compound 164] | > 5000
CC(C)CS(=O)(=O)c1ccc(C(=O)N2CCC3(CC2)CN(CC(F)(F)F)CC(c2ccccc2)O3)cc1 (stereo not drawn) [Compound 165] | < 2000
CCN1CC(c2ccccc2)OC2(CCN(C(=O)c3ccc(OC(C)C)c(CO)c3)CC2)C1 (stereo not drawn) [Compound 166] | 2000 to 5000
CCN1CC(c2ccccc2)OC2(CCN(C(=O)c3ccc(S(=O)(=O)NC4CC4)cc3)CC2)C1 (stereo not drawn) [Compound 167] | > 5000
Cc1cc(C(=O)N2CCC3(CC2)CN(CC(F)F)CC(c2ccccc2)O3)ccc1C(C)(C)O (stereo not drawn) [Compound 168] | < 2000
COCC1CN(Cc2ccccc2)CC2(CCN(C(=O)c3ccc(OC(C)C)c(C)c3)CC2)O1 (stereo not drawn) [Compound 169] | < 2000
Cc1cc(C(=O)N2CCC3(CC2)CN(CC(F)F)CC(c2ccc(F)cc2)O3)ccc1OCC(C)(C)O (stereo not drawn) [Compound 170] | < 2000
Cc1cc(C(=O)N2CCC3(CC2)CN(c2ncccn2)CC(COC(F)F)O3)ccc1OC(C)C (stereo not drawn) [Compound 171] | < 2000
COc1cc(C(=O)N2CCC3(CC2)CN(CC(F)(F)F)CC(c2ccccc2)O3)ccc1S(C)(=O)=O (stereo not drawn) [Compound 172] | > 5000
COCC1CN(c2ncccn2)CC2(CCN(C(=O)c3ccc(OC(C)C)c(OC)c3)CC2)O1 (stereo not drawn) [Compound 173] | 2000 to 5000
COCCCN1CC(COC)OC2(CCN(C(=O)c3ccc(OC(C)C)c(C)c3)CC2)C1 (stereo not drawn) [Compound 175] | < 2000
CCC1CN(c2ccccn2)CC2(CCN(C(=O)c3ccc(C4(O)CCC4)c(C)c3)CC2)O1 (stereo not drawn) [Compound 176] | < 2000
